From PMC12361428 (Nature Communications, 2025)
“And” between values parts separate entries of the source, which are not always exact repeats. Identical values can stand only once.

Columns and labels:
Nluc-A3AR Y15A^1.35 = target: T1, Nluc-A3AR Y15A^1.35 (Homo sapiens, UniProt P0DMS8, Y15A); assay: biochemical; format: binding
T1 construct: expressed in transfected cells; host or cells: HEK293a
Experimental: (§1) All experiments were performed in duplicate.
(§2) Data were expressed as the mean ± standard error. All binding and Trupath data were analysed using the nonlinear regression curve-fitting programme with Prism 10 (GraphPad, San Diego, CA, USA). For nanoBRET saturation binding experiments, specific binding was calculated by subtracting non-specific binding (defined as binding in the presence of 10 µM MRS1220) from total binding. Specific binding data in each experiment were then normalised to the maximal binding (Bmax) of WT and fit to a one-site specific binding equation: Y =Bmax*[X]/(Kd + [X]). For nanoBRET competition binding experiments, data were normalised to total and non-specific binding responses and fit to a one-site—Fit Ki equation. Trupath's experimental data was baseline-corrected to the initial four baseline reads and then adjusted to the buffer control response. The area under the curve (AUC) for each response was calculated and plotted with a non-linear regression curve (log[agonist] vs response, three-parameter model), using the equation: Y = Bottom + (Top–Bottom)/(1 + 10^((LogEC50-X))). Here, X represents the log dose of the agonist, Y is the BRET2 AUC response, Top and Bottom are the curve plateaus, and EC50 is the agonist concentration yielding a response halfway between the Bottom and Top values. […] The efficacy of the agonists (τA) was separately calculated using the Black–Leff operational model of agonism[79] using KA values from Table 2 and then corrected for receptor expression relative to WT using Bmax values from Table 1[80]. Significant differences vs WT were determined by one-way ANOVA with a Dunnett’s multiple comparison test.

A3AR-BRIL = target: T2, A3AR-BRIL (Homo sapiens, UniProt P0DMS8); assay: NanoBRET competition binding vs XAC-630; conditions: for XAC-630 NanoBRET binding, normalised (Figure S2H), individual replicates: A3AR-BRIL
T2 sequence (P0DMS8 1-318): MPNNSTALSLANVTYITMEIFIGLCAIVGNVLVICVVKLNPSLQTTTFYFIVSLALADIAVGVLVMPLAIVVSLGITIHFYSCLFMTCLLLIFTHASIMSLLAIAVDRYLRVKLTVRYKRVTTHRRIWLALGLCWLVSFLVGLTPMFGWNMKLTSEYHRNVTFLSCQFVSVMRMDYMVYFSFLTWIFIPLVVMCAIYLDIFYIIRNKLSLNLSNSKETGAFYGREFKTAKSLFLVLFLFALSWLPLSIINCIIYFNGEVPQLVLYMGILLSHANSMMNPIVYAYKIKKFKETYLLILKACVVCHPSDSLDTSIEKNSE
Experimental: as §1
(§3) Data were expressed as the mean ± standard error. All binding and Trupath data were analysed using the nonlinear regression curve-fitting programme with Prism 10 (GraphPad, San Diego, CA, USA). For nanoBRET saturation binding experiments, specific binding was calculated by subtracting non-specific binding (defined as binding in the presence of 10 µM MRS1220) from total binding. Specific binding data in each experiment were then normalised to the maximal binding (Bmax) of WT and fit to a one-site specific binding equation: Y =Bmax*[X]/(Kd + [X]). For nanoBRET competition binding experiments, data were normalised to total and non-specific binding responses and fit to a one-site—Fit Ki equation. […] Significant differences vs WT were determined by one-way ANOVA with a Dunnett’s multiple comparison test.

Nluc-A3AR T94A^3.36 = target: T3, Nluc-A3AR T94A^3.36 (Homo sapiens, UniProt P0DMS8, T94A); assay: biochemical; format: binding
T3 construct: expressed in transfected cells; host or cells: HEK293a
T3 sequence (P0DMS8 whole entry T94A): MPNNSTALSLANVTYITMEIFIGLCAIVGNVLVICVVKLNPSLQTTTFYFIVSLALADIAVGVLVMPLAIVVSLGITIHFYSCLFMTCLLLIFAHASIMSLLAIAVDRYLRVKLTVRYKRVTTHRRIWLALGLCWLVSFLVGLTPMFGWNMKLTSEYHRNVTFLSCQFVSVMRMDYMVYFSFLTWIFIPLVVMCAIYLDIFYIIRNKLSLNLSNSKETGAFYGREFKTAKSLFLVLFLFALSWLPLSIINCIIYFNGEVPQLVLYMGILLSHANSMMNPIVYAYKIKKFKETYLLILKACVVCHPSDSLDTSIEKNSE
Experimental: as §1, §2

Nluc-A3AR H95F^3.37 = target: T4, Nluc-A3AR H95F^3.37 (Homo sapiens, UniProt P0DMS8, H95F); assay: biochemical; format: binding
T4 construct: expressed in transfected cells; host or cells: HEK293a
T4 sequence (P0DMS8 whole entry H95F): as the sequence (P0DMS8 whole entry T94A) above, with A94T, H95F counted along it
Experimental: as §1
(§4) Data were expressed as the mean ± standard error. All binding and Trupath data were analysed using the nonlinear regression curve-fitting programme with Prism 10 (GraphPad, San Diego, CA, USA). For nanoBRET saturation binding experiments, specific binding was calculated by subtracting non-specific binding (defined as binding in the presence of 10 µM MRS1220) from total binding. Specific binding data in each experiment were then normalised to the maximal binding (Bmax) of WT and fit to a one-site specific binding equation: Y =Bmax*[X]/(Kd + [X]). For nanoBRET competition binding experiments, data were normalised to total and non-specific binding responses and fit to a one-site—Fit Ki equation. Trupath's experimental data was baseline-corrected to the initial four baseline reads and then adjusted to the buffer control response. The area under the curve (AUC) for each response was calculated and plotted with a non-linear regression curve (log[agonist] vs response, three-parameter model), using the equation: Y = Bottom + (Top–Bottom)/(1 + 10^((LogEC50-X))). Here, X represents the log dose of the agonist, Y is the BRET2 AUC response, Top and Bottom are the curve plateaus, and EC50 is the agonist concentration yielding a response halfway between the Bottom and Top values. […] Significant differences vs WT were determined by one-way ANOVA with a Dunnett’s multiple comparison test. Significance levels are indicated as follows: P ≤ 0.0001****, P = 0.0001–0.001***, P = 0.001–0.01**, and P = 0.01–0.05*.

Nluc-A3AR S271A^7.42 = target: T5, Nluc-A3AR S271A^7.42 (Homo sapiens, UniProt P0DMS8, S271A); assay: biochemical; format: binding
T5 construct: expressed in transfected cells; host or cells: HEK293a
T5 sequence (P0DMS8 whole entry S271A): as the sequence (P0DMS8 whole entry T94A) above, with A94T, S271A counted along it
Experimental: as §1, §3

Nluc-A3AR M174A^5.35 = target: T6, Nluc-A3AR M174A^5.35 (Homo sapiens, UniProt P0DMS8, M174A); assay: biochemical; format: binding
T6 construct: expressed in transfected cells; host or cells: HEK293a
T6 sequence (P0DMS8 whole entry M174A): as the sequence (P0DMS8 whole entry T94A) above, with A94T, M174A counted along it
Experimental: as §1, §2

Nluc-A3AR Y265A^7.36 = target: T7, Nluc-A3AR Y265A^7.36 (Homo sapiens, UniProt P0DMS8, Y265A); assay: biochemical; format: binding
T7 construct: expressed in transfected cells; host or cells: HEK293a
T7 sequence (P0DMS8 whole entry Y265A): as the sequence (P0DMS8 whole entry T94A) above, with A94T, Y265A counted along it
Experimental: as §1, §2

Nluc-A3AR S73A^2.65 = target: T8, Nluc-A3AR S73A^2.65 (Homo sapiens, UniProt P0DMS8, S73A); assay: biochemical; format: binding
T8 construct: expressed in transfected cells; host or cells: HEK293a
T8 sequence (P0DMS8 whole entry S73A): as the sequence (P0DMS8 whole entry T94A) above, with S73A, A94T counted along it
Experimental: as §1, §3

Nluc-A3AR V169E^45.53 = target: T9, Nluc-A3AR V169E^45.53 (Homo sapiens, UniProt P0DMS8, V169E); assay: biochemical; format: binding
T9 construct: expressed in transfected cells; host or cells: HEK293a
T9 sequence (P0DMS8 whole entry V169E): as the sequence (P0DMS8 whole entry T94A) above, with A94T, V169E counted along it
Experimental: as §1, §4

Nluc-A3AR H95A^3.37 = target: T10, Nluc-A3AR H95A^3.37 (Homo sapiens, UniProt P0DMS8, H95A); assay: biochemical; format: binding
T10 construct: expressed in transfected cells; host or cells: HEK293a
T10 sequence (P0DMS8 whole entry H95A): as the sequence (P0DMS8 whole entry T94A) above, with A94T, H95A counted along it
Experimental: as §1, §4

Nluc-A3AR WT = target: T11, Nluc-A3AR WT (Homo sapiens, UniProt P0DMS8); assay: biochemical; format: binding
T11 construct: expressed in transfected cells; host or cells: HEK293a
Experimental: as §1, §3

T1 sequence (P0DMS8 whole entry Y15A): as the sequence (P0DMS8 whole entry T94A) above, with Y15A, A94T counted along it

Compound: CCCn1c(=O)c2c(nc3cc(OC)ccn32)n(CCCCNC(=O)c2ccc(S(=O)(=O)F)cc2)c1=O [LUF7602]
- pKi (Nluc-A3AR Y15A^1.35; Y15A): 6.6 ± 0.2 (4)
- reduction of binding affinity vs WT (Nluc-A3AR Y15A^1.35; Y15A): 10 fold
- ΔpKi relative to WT (Nluc-A3AR Y15A^1.35; Y15A): -0.882
- remaining activity at 60.26 pM (Nluc-A3AR Y15A^1.35; read-out: normalised XAC-630 binding, Y15A, log[LUF7602] -10.22 M): 100%
- pKi Mean (Figure S2H) (A3AR-BRIL; BRIL, n 3): 6.94
- XAC-630 NanoBRET binding, normalised (Figure S2H), individual replicates (A3AR-BRIL; log LUF7602 -5): 0
- XAC-630 NanoBRET binding, normalised (Figure S2H), individual replicates (A3AR-BRIL; log LUF7602 -6): 22.1463 and 17.4094 and 21.7431
- XAC-630 NanoBRET binding, normalised (Figure S2H), individual replicates (A3AR-BRIL; log LUF7602 -7): 61.493 and 91.0533 and 82.952
- XAC-630 NanoBRET binding, normalised (Figure S2H), individual replicates (A3AR-BRIL; log LUF7602 -8): 66.0931 and 109.671 and 102.784
- XAC-630 NanoBRET binding, normalised (Figure S2H), individual replicates (A3AR-BRIL; log LUF7602 -9): 71.5361 and 107.819 and 104.301
- XAC-630 NanoBRET binding, normalised (Figure S2H), individual replicates (A3AR-BRIL; log LUF7602 -10): 72.9226 and 106.236 and 100.479
- pKi (Nluc-A3AR T94A^3.36; T94A): 7.3 ± 0.05 (3)
- ΔpKi relative to WT (Nluc-A3AR T94A^3.36; T94A): -0.208
- remaining activity at 0.06026 µM (Nluc-A3AR T94A^3.36; read-out: normalised XAC-630 binding, T94A, log[LUF7602] -7.22 M): 77.1%
- remaining activity at 0.006026 µM (Nluc-A3AR T94A^3.36; read-out: normalised XAC-630 binding, T94A, log[LUF7602] -8.22 M): 100%
- remaining activity at 0.0006026 µM (Nluc-A3AR T94A^3.36; read-out: normalised XAC-630 binding, T94A, log[LUF7602] -9.22 M): 87.2%
- remaining activity at 60.26 pM (Nluc-A3AR T94A^3.36; read-out: normalised XAC-630 binding, T94A, log[LUF7602] -10.22 M): 100%
- pKi (Nluc-A3AR H95F^3.37; H95F): 6.4 ± 0.09 (3)
- reduction of binding affinity vs WT (Nluc-A3AR H95F^3.37; H95F): ~ 10 fold
- ΔpKi relative to WT (Nluc-A3AR H95F^3.37; H95F): -1.06
- remaining activity at 0.006026 µM (Nluc-A3AR H95F^3.37; read-out: normalised XAC-630 binding, H95F, log[LUF7602] -8.22 M): 88.8%
- remaining activity at 60.26 pM (Nluc-A3AR H95F^3.37; read-out: normalised XAC-630 binding, H95F, log[LUF7602] -10.22 M): 100%
- remaining activity at 0.6026 µM (Nluc-A3AR H95F^3.37; read-out: normalised XAC-630 binding, H95F, log[LUF7602] -[…]): 47%
- ΔpKi relative to WT (Nluc-A3AR S271A^7.42; S271A): 0.423
- pKi (Nluc-A3AR S271A^7.42; S271A, 40 nM XAC-630): 7.9 ± 0.09 (3)
- remaining activity at 60.26 pM (Nluc-A3AR S271A^7.42; read-out: normalised XAC-630 binding, S271A, log[LUF7602] -10.22 M): 100%
- remaining activity at 0.6026 µM (Nluc-A3AR S271A^7.42; read-out: normalised XAC-630 binding, S271A, log[LUF7602] -[…]): 5.71%
- pKi (Nluc-A3AR M174A^5.35; M174A): 6.5 ± 0.09 (3)
- reduction of binding affinity vs WT (Nluc-A3AR M174A^5.35; M174A): 10 fold
- ΔpKi relative to WT (Nluc-A3AR M174A^5.35; M174A): -0.957
- remaining activity at 0.06026 µM (Nluc-A3AR M174A^5.35; read-out: normalised XAC-630 binding, M174A, log[LUF7602] -7.22 M): 96.7%
- remaining activity at 0.0006026 µM (Nluc-A3AR M174A^5.35; read-out: normalised XAC-630 binding, M174A, log[LUF7602] -9.22 M): 112%
- remaining activity at 60.26 pM (Nluc-A3AR M174A^5.35; read-out: normalised XAC-630 binding, M174A, log[LUF7602] -10.22 M): 100%
- remaining activity at 0.6026 µM (Nluc-A3AR M174A^5.35; read-out: normalised XAC-630 binding, M174A, log[LUF7602] -[…]): 44.9%
- pKi (Nluc-A3AR Y265A^7.36; Y265A): 6.3 ± 0.07 (3)
- reduction of binding affinity vs WT (Nluc-A3AR Y265A^7.36; Y265A): 15 fold
- ΔpKi relative to WT (Nluc-A3AR Y265A^7.36; Y265A): -1.2
- remaining activity at […] (Nluc-A3AR Y265A^7.36; read-out: normalised XAC-630 binding, Y265A, log[LUF7602] -9.5 M): 100%
- pKi (Nluc-A3AR S73A^2.65; S73A): 7.2 ± 0.06 (3)
- ΔpKi relative to WT (Nluc-A3AR S73A^2.65; S73A): -0.31
- remaining activity at 0.06026 µM (Nluc-A3AR S73A^2.65; read-out: normalised XAC-630 binding, S73A, log[LUF7602] -7.22 M): 71.4%
- remaining activity at 0.006026 µM (Nluc-A3AR S73A^2.65; read-out: normalised XAC-630 binding, S73A, log[LUF7602] -8.22 M): 90.3%
- remaining activity at 0.0006026 µM (Nluc-A3AR S73A^2.65; read-out: normalised XAC-630 binding, S73A, log[LUF7602] -9.22 M): 91.8%
- remaining activity at 60.26 pM (Nluc-A3AR S73A^2.65; read-out: normalised XAC-630 binding, S73A, log[LUF7602] -10.22 M): 100%
- remaining activity at 0.6026 µM (Nluc-A3AR S73A^2.65; read-out: normalised XAC-630 binding, S73A, log[LUF7602] -[…]): 19.1%
- pKi (Nluc-A3AR V169E^45.53; V169E): 7.2 ± 0.05 (3)
- ΔpKi relative to WT (Nluc-A3AR V169E^45.53; V169E): -0.293
- remaining activity at 0.06026 µM (Nluc-A3AR V169E^45.53; read-out: normalised XAC-630 binding, V169E, log[LUF7602] -7.22 M): 87.5%
- remaining activity at 0.006026 µM (Nluc-A3AR V169E^45.53; read-out: normalised XAC-630 binding, V169E, log[LUF7602] -8.22 M): 97.5%
- remaining activity at 0.0006026 µM (Nluc-A3AR V169E^45.53; read-out: normalised XAC-630 binding, V169E, log[LUF7602] -9.22 M): 105%
- remaining activity at 60.26 pM (Nluc-A3AR V169E^45.53; read-out: normalised XAC-630 binding, V169E, log[LUF7602] -10.22 M): 100%
- remaining activity at 0.6026 µM (Nluc-A3AR V169E^45.53; read-out: normalised XAC-630 binding, V169E, log[LUF7602] -[…]): 17%
- pKi (Nluc-A3AR H95A^3.37; H95A): 6.2 ± 0.2 (3)
- reduction of binding affinity vs WT (Nluc-A3AR H95A^3.37; H95A): ~ 10 fold
- ΔpKi relative to WT (Nluc-A3AR H95A^3.37; H95A): -1.328
- remaining activity at 0.1 µM (Nluc-A3AR H95A^3.37; read-out: normalised XAC-630 binding, H95A, log[LUF7602] -7 M): 98.1%
- remaining activity at 0.01 µM (Nluc-A3AR H95A^3.37; read-out: normalised XAC-630 binding, H95A, log[LUF7602] -8 M): 113%
- remaining activity at 0.001 µM (Nluc-A3AR H95A^3.37; read-out: normalised XAC-630 binding, H95A, log[LUF7602] -9 M): 104%
- remaining activity at 0.0001 µM (Nluc-A3AR H95A^3.37; read-out: normalised XAC-630 binding, H95A, log[LUF7602] -10 M): 100%
- pKi (Nluc-A3AR WT; WT): 7.5 ± 0.05 (4)
- ΔpKi relative to WT (Nluc-A3AR WT; WT): 0
- pKi Mean (Figure S2H) (Nluc-A3AR WT; WT, n 3): 7.306
- XAC-630 NanoBRET binding, normalised (Figure S2H), individual replicates (Nluc-A3AR WT; log LUF7602 -5, A3AR-WT): 0
- normalised XAC-630 binding at 10 µM (Nluc-A3AR WT; read-out: XAC-630 NanoBRET binding, normalised (Figure S2H), individual replicates, log LUF7602 -5, A3AR-WT): 0%
- normalised XAC-630 binding at 0.1 µM (Nluc-A3AR WT; read-out: XAC-630 NanoBRET binding, normalised (Figure S2H), individual replicates, log LUF7602 -7, A3AR-WT): 59.3%
- normalised XAC-630 binding at 0.01 µM (Nluc-A3AR WT; read-out: XAC-630 NanoBRET binding, normalised (Figure S2H), individual replicates, log LUF7602 -8, A3AR-WT): 78%
- normalised XAC-630 binding at 0.0001 µM (Nluc-A3AR WT; read-out: XAC-630 NanoBRET binding, normalised (Figure S2H), individual replicates, log LUF7602 -10, A3AR-WT): 89.4%
- normalised XAC-630 binding at 0.06026 µM (Nluc-A3AR WT; read-out: normalised XAC-630 binding, WT, log[LUF7602] -7.22 M): 69.6%
- normalised XAC-630 binding at 0.006026 µM (Nluc-A3AR WT; read-out: normalised XAC-630 binding, WT, log[LUF7602] -8.22 M): 96.8%
- normalised XAC-630 binding at 0.0006026 µM (Nluc-A3AR WT; read-out: normalised XAC-630 binding, WT, log[LUF7602] -9.22 M): 90.4%
- normalised XAC-630 binding at 60.26 pM (Nluc-A3AR WT; read-out: normalised XAC-630 binding, WT, log[LUF7602] -10.22 M): 100%
